Test results published in patent US7105312B2, “Ca2+/calmodulin-dependent protein kinase IV” (Duke University, priority 2001, dated 2006).

Key:
[1] = system: isolated peripheral neutrophils; assay: Neutrophil respiratory burst and hydrogen peroxide production after stimulation by fMLP or PMA; format: cell-based; settings: isolated peripheral neutrophils from normal mice or humans
Method: (§1) In isolated peripheral neutrophils from normal mice or humans, the responses of neutrophils to stimulation by the chemotactic peptide, fMLP, or by the phorbol ester, PMA, was evaluated. […] It was known that the […], p38, is required for the respiratory burst that follows neutrophil activation. […] BM neutrophils have been isolated from normal and Camk4−/− mice and p38 activation in response to PMA has been evaluated.

p38 = p38 activation in neutrophils in response to fMLP or TPA; format: cell-based, mice or humans; settings: in response to either fMLP or TPA
Method: as §1

In the case of `COc1ccc(S(=O)(=O)N(CCO)c2ccccc2CN(C)C/C=C/c2ccc(Cl)cc2)cc1` [KN-93], the hydrogen peroxide production [1] is reported as “completely inhibited”, the respiratory burst [1] is reported as “completely inhibited” and the p38 activation (p38) is reported as “prevented”.
